Data as given in ChEMBL document CHEMBL1201862, “PubChem BioAssay data set” (2004).
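Exposure lasted 48 hours, with cells grown in 96-well plates and compounds tested at five concentrations. Here, GI50 denotes the concentration required for 50% inhibition of growth.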 Calls of active or inactive are those of the source. Cut-off read from the data, not from the text of the source: active = GI50 up to about 1.1 µM and inactive = higher.

Legend:
Assay in all cases: NCI anticancer screen, dose series, 48 h
MDA-MB-231 = system: MDA-MB-231
NCI-H522 = system: NCI-H522
A498 = system: A498
SF-539 = system: SF-539
HCT-15 = system: HCT-15
MOLT-4 = system: MOLT-4
HOP-62 = system: HOP-62
ACHN = system: ACHN
OVCAR-5 = system: OVCAR-5
SF-295 = system: SF-295
UO-31 = system: UO-31
KM12 = system: KM12
SK-MEL-2 = system: SK-MEL-2
HOP-92 = system: HOP-92
BT-549 = system: BT-549
MDA-MB-435 = system: MDA-MB-435
SN12C = system: SN12C
CCRF-CEM = system: CCRF-CEM
T47D = system: T47D
IGROV-1 = system: IGROV-1

Structure (SMILES) | GI50 (MDA-MB-231) | GI50 (NCI-H522) | GI50 (A498) | GI50 (SF-539) | GI50 (HCT-15) | GI50 (MOLT-4) | GI50 (HOP-62) | GI50 (ACHN) | GI50 (OVCAR-5) | GI50 (SF-295) | GI50 (UO-31) | GI50 (KM12) | GI50 (SK-MEL-2) | GI50 (HOP-92) | GI50 (BT-549) | GI50 (MDA-MB-435) | GI50 (SN12C) | GI50 (CCRF-CEM) | GI50 (T47D) | GI50 (IGROV-1)
NS(=O)(=O)c1nnc(NS(=O)(=O)C(F)(F)F)s1 | > 100 µM (inactive) | > 100 µM (inactive) | > 100 µM (inactive) | > 100 µM (inactive) | > 100 µM | > 100 µM (inactive) | > 100 µM (inactive) | > 100 µM (inactive) | > 100 µM (inactive) | > 100 µM (inactive) | > 100 µM (inactive) | > 100 µM (inactive) | > 100 µM (inactive) | > 100 µM (inactive) | > 100 µM (inactive) | > 100 µM (inactive) | – | – | – | –
O=[N+]([O-])c1ccc(N/N=C2\C=CCCC2)c([N+](=O)[O-])c1 | – | > 100 µM (inactive) | – | – | > 100 µM | > 10 µM (inactive) | 63.5 µM (inactive) | 81.8 µM (inactive) | > 100 µM (inactive) | 31.3 µM (inactive) | 39 µM (inactive) | > 100 µM (inactive) | > 100 µM (inactive) | 52.1 µM (inactive) | > 100 µM (inactive) | > 100 µM (inactive) | > 100 µM (inactive) | > 100 µM (inactive) | > 100 µM (inactive) | 73.1 µM (inactive)
CCCCCCC(C)CC(CCCCCC)NCCOC(=O)c1ccc([N+](=O)[O-])cc1 (stereo not given) | 6.71 µM (inactive) | 12.1 µM (inactive) | 18.4 µM (inactive) | 13 µM (inactive) | 10.1 µM | – | 14.3 µM (inactive) | 13.3 µM (inactive) | 18.5 µM (inactive) | 15.2 µM (inactive) | 10.4 µM (inactive) | 10.1 µM (inactive) | 14.1 µM (inactive) | 5.82 µM (inactive) | 15.4 µM (inactive) | – | 10.7 µM (inactive) | 4.52 µM (inactive) | 10.7 µM (inactive) | 12.3 µM (inactive)
COc1ccc(Oc2cccc(/C=C3/C(=O)Nc4ccccc43)c2)cc1 | – | 6.61 µM (inactive) | 12.2 µM (inactive) | 18.9 µM (inactive) | 10.2 µM | 4 µM (inactive) | 14.8 µM (inactive) | 11.6 µM (inactive) | 17.7 µM (inactive) | 7.01 µM (inactive) | 6.82 µM (inactive) | 5.02 µM (inactive) | 11.1 µM (inactive) | 3.53 µM (inactive) | 14.8 µM (inactive) | 3.58 µM (inactive) | 10.9 µM (inactive) | 4.21 µM (inactive) | 1.77 µM (inactive) | 7.91 µM (inactive)
C/C=C(C)/C=C/CC(C)CCC=C(C)C (stereo not given) | > 100 µM (inactive) | – | > 100 µM (inactive) | > 100 µM (inactive) | > 100 µM | > 100 µM (inactive) | – | > 100 µM (inactive) | > 100 µM (inactive) | > 100 µM (inactive) | > 100 µM (inactive) | > 100 µM (inactive) | > 100 µM (inactive) | > 100 µM (inactive) | > 100 µM (inactive) | > 100 µM (inactive) | > 100 µM (inactive) | > 100 µM (inactive) | – | > 100 µM (inactive)
c1ccc2sc(C3(N4CCCC4)CCCCCC3)cc2c1 | 17.1 µM (inactive) | 18.7 µM (inactive) | 16.6 µM (inactive) | 19.6 µM (inactive) | 17.5 µM | 12.5 µM (inactive) | 18.5 µM (inactive) | 23.6 µM (inactive) | 11.7 µM (inactive) | 15 µM (inactive) | 12.8 µM (inactive) | 12.9 µM (inactive) | – | 12.6 µM (inactive) | 21.4 µM (inactive) | 16.4 µM (inactive) | 15.3 µM (inactive) | 10.7 µM (inactive) | – | 19.1 µM (inactive)
